Where a SMILES comes first, the peptide text is derived from it. Where only a bound is given, the exact number is not on record here.

For one data set, the system named is HepG2 cells. The experiment in a line: HepG2 cell viability (CCK-8). Format: cell-based, human. The settings on record: at certain concentrations within 100-400 μg/mL, 24 h, p < 0.05. The method, then: HepG2 human hepatocellular carcinoma cells utilized in this study were generously provided by Prof. Fuliang Hu from Zhejiang University’s College of Animal Science (China). Cellular maintenance involved cultivation in HyClone’s high-glucose DMEM medium supplemented with 10% heat-inactivated fetal bovine serum (Gibco, Waltham, MA, USA) and antibiotic agents (100 U/mL penicillin plus 100 μg/mL streptomycin). Cellular propagation was conducted under standard culture conditions (37 °C, 5% CO2 humidified atmosphere), following established protocols.
To validate whether the bioactive peptides exert toxic effects on cells, the impact of peptide concentrations on cell viability should also be assessed. […] After the treatment period, 10 μL of CCK-8 solution was added, and these 96-well plates were gently shaken and incubated again at 37 °C under 5% CO2 for another 1 h. In the end, the calculation methodology for evaluating the cell viability of bioactive peptides is described in Equation (2) in Section 2.6 to assess the effects of bioactive peptides on cell viability. All blank groups were established using DMEM high-glucose medium devoid of insulin.
For the compound `CC(C)C[C@H](NC(=O)[C@H](C)NC(=O)[C@H](CC(=O)O)NC(=O)[C@H](Cc1ccccc1)NC(=O)[C@@H]1CCCN1C(=O)[C@@H](N)CC(=O)O)C(=O)N1CCC[C@H]1C(=O)N[C@@H](CCCCN)C(=O)O` [DK-8] (H-DPFDALPK-OH), the “HepG2 cell viability versus blank group” value is “significantly higher than the blank group”.

Consider `CSCC[C@H](NC(=O)CN)C(=O)N[C@@H](CC(=O)O)C(=O)N[C@@H](Cc1ccccc1)C(=O)N[C@@H](CCC(N)=O)C(=O)N1CCC[C@H]1C(=O)N[C@@H](CCCNC(=N)N)C(=O)O` [GR-7] (H-GMDFQPR-OH), for which the “HepG2 cell viability versus blank group” value is listed as “significantly higher than the blank group”.

As for `CC(C)C[C@H](NC(=O)[C@@H](N)CO)C(=O)N[C@@H](Cc1ccccc1)C(=O)N[C@@H](CC(C)C)C(=O)N1CCC[C@H]1C(=O)N[C@@H](CCCCN)C(=O)O` [SK-6] (H-SLFLPK-OH), the “HepG2 cell viability versus blank group” value is listed as “significantly higher than the blank group”.

For a further data set, the target named is T1, DPP-IV (Homo sapiens, UniProt P27487).
T1 construct: purchased Abcam (Cambridge, UK)
T1 sequence (P27487 whole entry): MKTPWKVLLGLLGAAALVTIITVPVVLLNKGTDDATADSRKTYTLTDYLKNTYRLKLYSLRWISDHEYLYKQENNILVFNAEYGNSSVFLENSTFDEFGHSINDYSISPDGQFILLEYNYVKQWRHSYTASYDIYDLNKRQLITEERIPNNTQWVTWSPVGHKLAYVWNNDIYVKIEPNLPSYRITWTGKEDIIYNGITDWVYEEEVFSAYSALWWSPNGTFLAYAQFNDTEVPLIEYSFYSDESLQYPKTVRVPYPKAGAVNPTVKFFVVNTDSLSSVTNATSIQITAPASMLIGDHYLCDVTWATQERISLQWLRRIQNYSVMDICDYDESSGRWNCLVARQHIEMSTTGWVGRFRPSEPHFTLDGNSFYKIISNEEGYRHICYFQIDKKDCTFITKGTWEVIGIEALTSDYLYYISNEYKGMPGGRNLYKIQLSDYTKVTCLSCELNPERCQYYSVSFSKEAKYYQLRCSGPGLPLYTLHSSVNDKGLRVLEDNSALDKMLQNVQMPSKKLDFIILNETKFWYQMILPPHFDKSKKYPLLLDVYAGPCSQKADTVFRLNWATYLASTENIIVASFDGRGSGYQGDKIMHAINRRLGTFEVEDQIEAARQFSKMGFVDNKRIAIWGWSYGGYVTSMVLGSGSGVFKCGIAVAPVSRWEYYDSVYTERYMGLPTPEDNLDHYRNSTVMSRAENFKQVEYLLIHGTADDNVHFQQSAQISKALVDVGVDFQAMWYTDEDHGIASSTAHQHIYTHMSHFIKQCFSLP
Put plainly: DPP-IV inhibitor screening assay (commercial kit, Abcam). The format is biochemical. Conditions: IC50 from DPP-IV inhibition rates, '-' = no IC50 given (only three peptides showed inhibitory effects against DPP-IV). The method, then:
Subsequently, the screening assay was conducted using a commercial kit (Abcam, Cambridge, UK) following the protocols provided by the manufacturer. The half-maximal inhibitory concentration (IC50) was determined through analysis of DPP-IV inhibition rates, applying the formula outlined in Equation (2):(2) DPP-IV inhibition rate (%) = [(ABlank − ASample)/ABlank] × 100 where A represents the absorbance value.
By IC50 is commonly meant the concentration at which inhibition is half-maximal. On to `NCCCC[C@H](NC(=O)[C@H](Cc1ccccc1)NC(=O)[C@@H]1CCCN1C(=O)[C@@H]1CCCN1C(=O)CNC(=O)[C@H](Cc1ccc(O)cc1)NC(=O)[C@@H](N)CC(=O)O)C(=O)O` [DK-7] (H-DYGPPFK-OH), for which the IC50 was above 12.2 mM.

Regarding `CC(C)C[C@H](NC(=O)[C@H](CC(=O)O)NC(=O)[C@H](Cc1ccccc1)NC(=O)[C@@H]1CCCN1C(=O)[C@H](CC(N)=O)NC(=O)[C@@H](N)Cc1ccccc1)C(=O)N[C@H](C(=O)N[C@@H](CCCCN)C(=O)O)[C@@H](C)O` [FK-8] (H-FNPFDLTK-OH), the 50% inhibitory concentration (IC50) is above 10.2 mM.

`CC(C)C[C@H](NC(=O)[C@@H](N)CO)C(=O)N[C@@H](Cc1ccccc1)C(=O)N[C@@H](CC(C)C)C(=O)N1CCC[C@H]1C(=O)N[C@@H](CCCCN)C(=O)O` [SK-6] (H-SLFLPK-OH) gave an IC50 above 14.2 mM.

The values above are taken from article PMC12785325, “Edible Yellow Mealworm-Derived Antidiabetic Peptides: Dual Modulation of α-Glucosidase and Dipeptidyl-Peptidase IV Inhibition Revealed by Integrated Proteomics, Bioassays, and Molecular Docking Analysis” (Foods, 2025).
